{"source": "patent US9957230B2", "about": "“Synergistic compositions” (Cadila Healthcare Limited, priority 2013, dated 2018)", "key": {"db/db mice [1]": {"test_system": "db/db mice", "assay": "Antidiabetic activity with Exenatide or Glimepiride in db/db mice (studies VII and VIII): non-fasting serum glucose", "format": "in vivo", "conditions": "for Serum Glucose (mg/dl) Day 0: Day 0 (pretreatment), male and female db/db mice; for Serum Glucose (mg/dl) Day 6: Day 6, one hour after dose, non-fasting; for % Change Day 6 vs Day 0: serum glucose", "excerpt": "The in-vivo efficacy for antidiabetic activity was done in male and female db/db mice of 12-16 weeks of age. Generally obese and diabetic animals are insulin resistant and have abnormalities in glucose and lipid metabolism. The development of diabetes and beta cell dysfunction in these animal models closely parallels the pathophysiology of the disease condition in humans. […] They progressively develop into insulinopenia with age, a feature commonly observed in last stage of type-2 diabetes, when blood sugar levels are insufficiently controlled. Therefore, this genetic model proves to be suitable for predicting the likely therapeutic benefit of novel euglycemic agents in human type-2 diabetes.\nIn this experiment, 49 db/db mice of 12-16 week were divided into 7 groups and as per their day 0 serum glucose levels. […] Detail treatments and routes of administrations were mentioned in Table no. 27. The treatment was given once daily for 7 days.\nThe blood was collected by retro-orbital sinus puncture method under light ether anesthesia on day 0 (pretreatment) and on day 6 (one hour after dose administration) for non-fasting glucose analysis and oral glucose tolerance test (OGTT) was performed on day 7 of the treatment in fasting condition. After blood collection serum was separated and analyzed glucose analysis using Spectra max and commercial diagnostic kits. The OGTT procedure followed is as given below—\nThe calculation for antidiabetic activity i.e. effect on serum glucose and improvement in glucose Area Under Curve (AUC) was calculated using the excel sheet and Graph Pad Prism software. The day-0 and day-6 glucose values of vehicle control and treatment were considered for calculating the effect on serum glucose. The effect on glucose AUC was calculated using the OGTT glucose levels at different time points and the improvement in glucose AUC were the reduction in glucose AUC after the treatment during OGTT."}, "db/db mice [2]": {"test_system": "db/db mice", "assay": "Oral glucose tolerance test in db/db mice (studies I and II)", "format": "in vivo", "conditions": "Compound (Ia) 0.1 mg/kg; for AUC Glucose: OGTT day 14, fasting, glucose load 2 gm/kg; for % improvement in AUC glucose vs control: OGTT after 14 days of treatment", "excerpt": "8. […] 8. The treatment was given oral gavages once daily for 14 days.\nThe OGTT procedure followed is as given below—"}, "[3]": {"conditions": "Table 28, Compound Ia 0.1 mg/kg p.o., Exenatide 0.1 μg/kg i.p. once daily"}, "[4]": {"conditions": "Table 30, Compound Ia 0.1 mg/kg, Glimepiride 2 mg/kg p.o. once daily"}, "[5]": {"conditions": "Table 12, Metformin 150 mg/kg p.o."}}, "note": "Where “and” joins values, the source holds several entries; their conditions need not be identical. Identical values can stand only once. Counter-ions that a name gives are not always drawn.", "data": [{"smiles": "CCO[C@@H](Cc1ccc(OCCn2c(C)ccc2-c2ccc(SC)cc2)cc1)C(=O)O", "note": "[Compound (Ia), Benzenepropanoic acid, α-ethoxy-4-[2-[2-methyl-5-[4-(methylthio)phenyl]-1H -pyrrol-1-yl]ethoxy]-, magnesium salt]", "values": [{"measurement": "Serum Glucose (mg/dl) Day 0", "setting": "db/db mice [1]; [3]", "value": 420.6, "unit": "mg/dL"}, {"measurement": "Serum Glucose (mg/dl) Day 6", "setting": "db/db mice [1]; [3]", "value": 363.4, "unit": "mg/dL"}, {"measurement": "% Change Vs control", "setting": "db/db mice [1]; Table 28, serum glucose day 6 vs vehicle control (i.p. PBS or per oral vehicle), Compound Ia 0.1 mg/kg p.o., Exenatide 0.1 μg/kg i.p.", "value": "−24.8", "unit": "%"}, {"measurement": "% Change Day 6 vs Day 0", "setting": "db/db mice [1]; Table 28, Compound Ia 0.1 mg/kg p.o., Exenatide 0.1 μg/kg i.p.", "value": "−13.4", "unit": "%"}, {"measurement": "Serum Glucose (mg/dl) Day 0", "setting": "db/db mice [1]; [4]", "value": 420.6, "unit": "mg/dL"}, {"measurement": "Serum Glucose (mg/dl) Day 6", "setting": "db/db mice [1]; [4]", "value": 363.4, "unit": "mg/dL"}, {"measurement": "% Change Day 6 vs Day 0", "setting": "db/db mice [1]; Table 30, Compound Ia 0.1 mg/kg, Glimepiride 2 mg/kg p.o.", "value": "−13.4", "unit": "%"}, {"measurement": "% Change Vs control", "setting": "db/db mice [1]; Table 30 and text, serum glucose day 6 vs vehicle control, Compound Ia 0.1 mg/kg, Glimepiride 2 mg/kg p.o.", "value": "−24.8", "unit": "%"}, {"measurement": "reduction in serum glucose", "setting": "db/db mice [1]; db/db mice, day 6, Compound Ia 0.1 mg/kg p.o., Exenatide 0.1 μg/kg i.p.", "value": 24.8, "unit": "%"}, {"measurement": "AUC Glucose", "setting": "db/db mice [2]; Table 10, Sitagliptin 3 mg/kg p.o.", "value": "51757.3 ± 3366.3", "unit": "mg·min/dL"}, {"measurement": "% improvement in AUC glucose vs control", "setting": "db/db mice [2]; Table 10 and text, Sitagliptin 3 mg/kg p.o.", "value": "9% and 9.0 ± 5.9%"}, {"measurement": "% improvement in AUC glucose vs control", "setting": "db/db mice [2]; [5]", "value": 9, "unit": "%"}, {"measurement": "AUC Glucose", "setting": "db/db mice [2]; [5]", "value": 51757.3, "unit": "mg·min/dL"}]}]}
